# Assay results from patent publication US20020018997A1, “Biomolecular toxicity assay” (priority 2000, published 2002).
# What was measured:
# [1] = system: Photobacterium phosphoreum; details: cited from earlier work
# Beef Heart Mitochondria = details: cited from earlier work
# Fish = details: at 96 hr; cited from earlier work
# actin-cofilin complex = test: Native PAGE gel analysis of actin-cofilin complex; format: binding; details: for Effective (E50) concentration, disappearance of the actin-cofilin band: native PAGE gels, 25 μM actin-cofilin complex, metal mass without counter ions
# Protocol: Four heavy metal ions (Cd, Cu, Hg and Zn) were examined over the concentration range 1-1000 μg L^−1.
# Combinations of actin, cofilin and DNaseI were mixed at equimolar concentrations (˜20-25 μm) in a Eppendorf tube and incubated for 15 min at 22° C. Actin, cofilin, DNaseI and their complexes were then separated on a 10% w/v native gel. […] Instead, the rate of migration is determined by the ratio of charge to volume. Actin (MT 43 kDa) has a net negative charge.
# [2] = system: Sub-mitochondrial Particle (SMP); details: cited from earlier work
# DNA/EtBr complex = test: DNA/EtBr fluorescence emission in solution; format: binding; details: 5 μg/ml DNA, 2 μg/ml EtBr
# Protocol: The fluorescence emission of DNA-dye ligands such as ethidium bromide (EtBr) are examined spectroscopically in solution.
# Changes in fluorescence intensity were noticeable at 2 μM.
SMILES,Microtox mean lethal concentration [1] [µg/L],"Effective (E50) concentration, BHM (Beef Heart Mitochondria) [µg/L]","Effective (E50) concentration, Fish (Fish) [µg/L]","Effective (E50) concentration, disappearance of the actin-cofilin band (actin-cofilin complex) [µg/L]","Effective (E50) concentration, SMP [2] [µg/L]",Concentration at which the actin-cofilin complex is first noticeably affected (actin-cofilin complex; native gel),Concentration at which changes in fluorescence intensity were noticeable (DNA/EtBr complex) [µM],Concentration range of concentration-dependent quenching of fluorescent signal (DNA/EtBr complex; excitation 520 nm) [µM],Density of the actin-cofilin complex (actin-cofilin complex; 250-2500 μg L^−1)
[Cd+2] [Cd^2+],41400,158,630,800 to 1200,520,–,–,–,–
[Cu+2] [Cu^2+],9300,93,530,400 to 600,300,approximately 200 μg L^−1,–,–,–
[Cl][Hg][Cl] [HgCl2],–,–,–,–,–,–,2,1 to 100,–
"[Cl-].[Cl-].[Zn+2] [Zn^2+, ZnCl2]",33000,80,2990,900 to 1000,1700,–,–,–,decreased the density of the actin-cofilin complex
